Assay results as given in patent US10590140B2, “Tetrahydropyrimidodiazepine and dihydropyridodiazepine compounds for treating pain and pain related conditions” (ESTEVE PHARMACEUTICALS, S.A., priority 2016, dated 2020).

Target: human α2δ-1 subunit of Cav2.2 calcium channel (Homo sapiens (Human), UniProt P54289)
Assay: Binding assay to human α2δ-1 subunit of Cav2.2 calcium channel ([3H]-Gabapentin)
Settings: binding to α2δ-1, [3H]-Gabapentin; read-out: Ki (nM) α2δ-1
In short: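 Radioactivity on dried GF/C filters quantified by scintillation after filtration and three cold Tris-HCl (pH 7.4) washes. Incubation ran 60 min at 27° C with [3H]-gabapentin; 10 μM pregabalin gave nonspecific binding.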

Chain of human α2δ-1 subunit of Cav2.2 calcium channel (P54289 25-1103): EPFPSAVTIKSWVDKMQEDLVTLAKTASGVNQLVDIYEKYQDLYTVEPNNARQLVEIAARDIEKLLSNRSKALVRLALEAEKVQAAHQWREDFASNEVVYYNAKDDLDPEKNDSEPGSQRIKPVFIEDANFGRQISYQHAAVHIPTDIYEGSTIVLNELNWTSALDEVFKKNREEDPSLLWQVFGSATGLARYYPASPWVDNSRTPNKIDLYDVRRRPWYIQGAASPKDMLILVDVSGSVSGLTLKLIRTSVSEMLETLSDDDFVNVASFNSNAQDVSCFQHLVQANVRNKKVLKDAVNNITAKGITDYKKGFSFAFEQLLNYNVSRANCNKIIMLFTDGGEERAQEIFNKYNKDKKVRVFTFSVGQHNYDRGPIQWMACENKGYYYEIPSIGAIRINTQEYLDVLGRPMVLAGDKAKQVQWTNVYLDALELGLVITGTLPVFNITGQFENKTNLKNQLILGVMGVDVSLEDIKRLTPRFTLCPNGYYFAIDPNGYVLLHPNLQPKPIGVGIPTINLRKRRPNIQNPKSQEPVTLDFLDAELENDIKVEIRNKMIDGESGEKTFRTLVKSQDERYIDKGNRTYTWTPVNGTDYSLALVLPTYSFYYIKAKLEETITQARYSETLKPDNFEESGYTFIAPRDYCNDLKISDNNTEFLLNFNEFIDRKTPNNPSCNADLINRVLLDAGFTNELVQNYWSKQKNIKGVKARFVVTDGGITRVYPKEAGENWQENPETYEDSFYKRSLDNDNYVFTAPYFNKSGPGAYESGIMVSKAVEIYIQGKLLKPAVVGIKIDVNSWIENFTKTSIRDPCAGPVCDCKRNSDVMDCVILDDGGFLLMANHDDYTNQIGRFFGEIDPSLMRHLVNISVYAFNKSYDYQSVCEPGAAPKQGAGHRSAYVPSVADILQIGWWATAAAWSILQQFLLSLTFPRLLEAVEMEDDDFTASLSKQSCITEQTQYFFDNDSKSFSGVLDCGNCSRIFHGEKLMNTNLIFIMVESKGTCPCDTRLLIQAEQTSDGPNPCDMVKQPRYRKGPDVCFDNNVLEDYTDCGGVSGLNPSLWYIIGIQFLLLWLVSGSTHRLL

Compound	Ki
CCNc1ncc2c(n1)N(C)CCN(c1cccc(OCCN(C)C(=O)OC(C)(C)C)c1)C2=O [Example 90, tert-butyl (2-(3-(2-(ethylamino)-9-methyl-5-oxo-5,7,8,9-tetrahydro-6H-pyrimido[4,5-e][1,4]diazepin-6-yl)phenoxy)ethyl) (methyl)carbamate]	> 3000 nM
CCNc1ncc2c(n1)N(C)CCN(c1cccc(CCCN(C)C(=O)OC(C)(C)C)c1)C2=O [Example 91, tert-butyl (3-(3-(2-(ethylamino)-9-methyl-5-oxo-5,7,8,9-tetrahydro-6H-pyrimido[4,5-e][1,4]diazepin-6-yl)phenyl)propyl) (methyl)carbamate]	> 3000 nM
CCNc1ncc2c(n1)N(C)CCN(c1cccc(CCN(C)C(=O)OC(C)(C)C)c1)C2=O [Example 92, tert-butyl (3-(2-(ethylamino)-9-methyl-5-oxo-5,7,8,9-tetrahydro-6H-pyrimido[4,5-e][1,4]diazepin-6-yl)phenethyl)(methyl) carbamate]	> 3000 nM
CCNc1ncc2c(n1)N(C)CCN(c1cccc(C(C)(C)CN(C)C(=O)OC(C)(C)C)c1)C2=O [Example 93, tert-butyl (2-(3-(2-(ethylamino)-9-methyl-5-oxo-5,7,8,9-tetrahydro-6H-pyrimido[4,5-e][1,4]diazepin-6-yl)phenyl)-2-methylpropyl)(methyl) carbamate]	> 3000 nM
CCNc1ncc2c(n1)N(C)CCN(c1cccc(CN(C)C(=O)OC(C)(C)C)c1)C2=O [Example 94, tert-butyl (3-(2-(ethylamino)-9-methyl-5-oxo-5,7,8,9-tetrahydro-6H-pyrimido[4,5-e][1,4]diazepin-6-yl)benzyl)(methyl) carbamate]	> 3000 nM
CCNc1ncc2c(n1)N(C)CCN(c1cccc(OC3CCN(C(=O)OC(C)(C)C)C3)c1)C2=O (stereo not shown) [Example 95, tert-butyl 3-(3-(2-(ethylamino)-9-methyl-5-oxo-5,7,8,9-tetrahydro-6H-pyrimido[4,5-e][1,4]diazepin-6-yl)phenoxy)pyrrolidine-1-carboxylate]	> 3000 nM
CCNc1ncc2c(n1)N(C)CCN(c1cccc(COC3(c4ccccc4)CCN(C(=O)OC(C)(C)C)CC3)c1)C2=O [Example 96, tert-butyl 4-((3-(2-(ethylamino)-9-methyl-5-oxo-5,7,8,9-tetrahydro-6H-pyrimido[4,5-e][1,4]diazepin-6-yl)benzyl)oxy)-4-phenylpiperidine-1-carboxylate]	> 3000 nM
CCNc1ncc2c(n1)N(C)CCN(c1cccc(-c3nnc(C)o3)c1)C2=O [Example 97, 2-(ethylamino)-9-methyl-6-(3-(5-methyl-1,3,4-oxadiazol-2-yl)phenyl)-6,7,8,9-tetrahydro-5H-pyrimido[4,5-e][1,4]diazepin-5-one]	< 100 nM
Cc1nnc(-c2cccc(N3CCN(C)c4nc(NCC(C)C)ncc4C3=O)c2)o1 [Example 98, 2-(isobutylamino)-9-methyl-6-(3-(5-methyl-1,3,4-oxadiazol-2-yl)phenyl)-6,7,8,9-tetrahydro-5H-pyrimido[4,5-e][1,4]diazepin-5-one]	> 3000 nM
COCCNc1ncc2c(n1)N(C)CCN(c1cccc(-c3nnc(C)o3)c1)C2=O [Example 99, 2-((2-methoxyethyl)amino)-9-methyl-6-(3-(5-methyl-1,3,4-oxadiazol-2-yl)phenyl)-6,7,8,9-tetrahydro-5H-pyrimido[4,5-e][1,4]diazepin-5-one]	> 3000 nM
CNc1ncc2c(n1)N(C)CCN(c1cccc(-c3nnc(C)o3)c1)C2=O [Example 100, 9-methyl-6-(3-(5-methyl-1,3,4-oxadiazol-2-yl)phenyl)-2-(methylamino)-6,7,8,9-tetrahydro-5H-pyrimido[4,5-e][1,4]diazepin-5-one]	100 to 500 nM
Cc1nnc(-c2cccc(N3CCN(C)c4nc(N)ncc4C3=O)c2)o1 [Example 101, 2-amino-9-methyl-6-(3-(5-methyl-1,3,4-oxadiazol-2-yl)phenyl)-6,7,8,9-tetrahydro-5H-pyrimido[4,5-e][1,4]diazepin-5-one]	500 to 3000 nM
Cc1nnc(-c2cccc(N3CCN(C)c4nc(NCc5ccccc5)ncc4C3=O)c2)o1 [Example 102, 2-(benzylamino)-9-methyl-6-(3-(5-methyl-1,3,4-oxadiazol-2-yl)phenyl)-6,7,8,9-tetrahydro-5H-pyrimido[4,5-e][1,4]diazepin-5-one]	> 3000 nM
Cc1nnc(-c2cccc(N3CCN(C)c4nc(NC5CCCCC5)ncc4C3=O)c2)o1 [Example 103, 2-(cyclohexylamino)-9-methyl-6-(3-(5-methyl-1,3,4-oxadiazol-2-yl)phenyl)-6,7,8,9-tetrahydro-5H-pyrimido[4,5-e][1,4]diazepin-5-one]	> 3000 nM
Cc1nnc(-c2cccc(N3CCN(C)c4nc(N(C)Cc5ccccc5)ncc4C3=O)c2)o1 [Example 104, 2-(benzyl(methyl)amino)-9-methyl-6-(3-(5-methyl-1,3,4-oxadiazol-2-yl)phenyl)-6,7,8,9-tetrahydro-5H-pyrimido[4,5-e][1,4]diazepin-5-one]	> 3000 nM
Cc1nnc(-c2cccc(N3CCN(C)c4nc(NCCc5ccccc5)ncc4C3=O)c2)o1 [Example 105, 9-methyl-6-(3-(5-methyl-1,3,4-oxadiazol-2-yl)phenyl)-2-(phenethylamino)-6,7,8,9-tetrahydro-5H-pyrimido[4,5-e][1,4]diazepin-5-one]	> 3000 nM

Compound	Ki
Cc1nnc(-c2cccc(N3CCN(C)c4nc(N(C)Cc5ccccn5)ncc4C3=O)c2)o1 [Example 106, 9-methyl-2-(methyl (pyridin-2-ylmethyl)amino)-6-(3-(5-methyl-1,3,4-oxadiazol-2-yl)phenyl)-6,7,8,9-tetrahydro-5H-pyrimido[4,5-e][1,4]diazepin-5-one]	> 3000 nM
CCNc1ncc2c(n1)N(CC)CCN(c1cccc(-c3nnc(C)o3)c1)C2=O [Example 107, 9-ethyl-2-(ethylamino)-6-(3-(5-methyl-1,3,4-oxadiazol-2-yl)phenyl)-6,7,8,9-tetrahydro-5H-pyrimido[4,5-e][1,4]diazepin-5-one]	100 to 500 nM
CCNc1ncc2c(n1)N(C)CCN(c1cccc(-c3noc(C)n3)c1)C2=O [Example 108, 2-(ethylamino)-9-methyl-6-(3-(5-methyl-1,2,4-oxadiazol-3-yl)phenyl)-6,7,8,9-tetrahydro-5H-pyrimido[4,5-e][1,4]diazepin-5-one]	100 to 500 nM
CCNc1ncc2c(n1)N(C)CCN(c1cccc(OC)c1)C2=O [Example 109, 2-(ethylamino)-6-(3-methoxyphenyl)-9-methyl-6,7,8,9-tetrahydro-5H-pyrimido[4,5-e][1,4]diazepin-5-one]	500 to 3000 nM
CCNc1ncc2c(n1)N(C)CCN(c1cccc(C#N)c1)C2=O [Example 110, 3-(2-(ethylamino)-9-methyl-5-oxo-5,7,8,9-tetrahydro-6H-pyrimido[4,5-e][1,4]diazepin-6-yl)benzonitrile]	> 3000 nM
CCNc1ncc2c(n1)N(C)CCN(c1cccc(O[Si](C)(C)C(C)(C)C)c1)C2=O [Example 111, 6-(3-((tert-butyldimethylsilyl)oxy)phenyl)-2-(ethylamino)-9-methyl-6,7,8,9-tetrahydro-5H-pyrimido[4,5-e][1,4]diazepin-5-one]	> 3000 nM
CCNc1ncc2c(n1)N(C)CCN(c1cccc(Br)c1)C2=O [Example 112, 6-(3-bromophenyl)-2-(ethylamino)-9-methyl-6,7,8,9-tetrahydro-5H-pyrimido[4,5-e][1,4]diazepin-5-one]	> 3000 nM
CCNc1ncc2c(n1)N(C)CCN(c1cccc(CCO)c1)C2=O [Example 113, 2-(ethylamino)-6-(3-(2-hydroxyethyl)phenyl)-9-methyl-6,7,8,9-tetrahydro-5H-pyrimido[4,5-e][1,4]diazepin-5-one]	> 3000 nM
CCNc1ncc2c(n1)N(C)CCN(c1ccc(OC)cc1)C2=O [Example 114, 2-(ethylamino)-6-(4-methoxyphenyl)-9-methyl-6,7,8,9-tetrahydro-5H-pyrimido[4,5-e][1,4]diazepin-5-one]	> 3000 nM
CCNc1ncc2c(n1)N(C)CCN(c1ccc(O[Si](C)(C)C(C)(C)C)cc1)C2=O [Example 115]	> 3000 nM
CCNc1ncc2c(n1)N(C)CCN(c1cccc(-n3cc(CN(C)C(=O)OC(C)(C)C)nn3)c1)C2=O [Example 116, tert-butyl ((1-(3-(2-(ethylamino)-9-methyl-5-oxo-5,7,8,9-tetrahydro-6H-pyrimido[4,5-e][1,4]diazepin-6-yl)phenyl)-1H-1,2,3-triazol-4-yl)methyl)(methyl) carbamate]	> 3000 nM
CCNc1ncc2c(n1)N(C)CCN(c1cccc(-n3cc(CNC(=O)OC(C)(C)C)nn3)c1)C2=O [Example 117, tert-butyl ((1-(3-(2-(ethylamino)-9-methyl-5-oxo-5,7,8,9-tetrahydro-6H-pyrimido[4,5-e][1,4]diazepin-6-yl)phenyl)-1H-1,2,3-triazol-4-yl)methyl)carbamate]	> 3000 nM
CCNc1ncc2c(n1)N(C)CCN(c1cccc(-n3cc(CN(Cc4ccccc4)C(=O)OC(C)(C)C)nn3)c1)C2=O [Example 118, tert-butyl benzyl((1-(3-(2-(ethylamino)-9-methyl-5-oxo-5,7,8,9-tetrahydro-6H-pyrimido[4,5-e][1,4]diazepin-6-yl)phenyl)-1H-1,2,3-triazol-4-yl)methyl)carbamate]	> 3000 nM
CCNc1ncc2c(n1)N(C)CCN(c1cccc(-n3cc(C(OCC)OCC)nn3)c1)C2=O [Example 119, 6-(3-(4-(diethoxymethyl)-1H-1,2,3-triazol-1-yl)phenyl)-2-(ethylamino)-9-methyl-6,7,8,9-tetrahydro-5H-pyrimido[4,5-e][1,4]diazepin-5-one]	> 3000 nM
CCNc1ncc2c(n1)N(C)CCN(c1cccc(-n3cc(CCN(C)C(=O)OC(C)(C)C)nn3)c1)C2=O [Example 120, tert-butyl (2-(1-(3-(2-(ethylamino)-9-methyl-5-oxo-5,7,8,9-tetrahydro-6H-pyrimido[4,5-e][1,4]diazepin-6-yl)phenyl)-1H-1,2,3-triazol-4-yl)ethyl)(methyl) carbamate]	> 3000 nM
